Test results published in patent US20050276857A1, “Hydrogels formed by non-covalent linkages” (University of Washington, priority 2002, published 2005).
Where two headings read alike, the source gives them in different places.

Tests used:
[1] = Comparison of D- and L-amino acids for forming hydrogels with PVA; format: physicochemical; design: key: {square root} = Gel formation when amino acid was dissolved in water; + = Gel formation when amino acid was dissolved in 1 M NaHCO3; − = No gel formation regardless of solvent for amino acid; *= HCl derivative of amino acid; conditions: 1 ml of 8% PVA; for Gel formation, D: D-amino acid; for Gel formation, L: L-amino acid
Description: In these experiments, the ability of D-amino acids to gel PVA was compared directly to the gelling observed using L-amino acids. The concentrations of amino acids used were the same for both the L- and D-forms. All D- and L-amino acids were obtained from Aldrich. Typically, 100 mg of amino acid was dissolved in the minimum amount of water or 1M NaHCO3 (200-600 microliter) necessary to dissolve it. […] For each amino acid/PVA combination, 1 ml of 8% PVA was used (80 mg PVA) and the amount of amino acid was varied. 100 mg of each of amino acids was added unless listed below, with the following exceptions: L-Gln 20 mg; D-Ile 50 mg; L-Phe 20 mg and 40 mg; L-Pro 50 mg and 100 mg; L-Ser 30 mg and 100 mg; L-Thr 30 mg; D-Trp 10 mg and 30 mg; L-Trp 8 mg; L-Tyr 10 mg; D-Tyr 10 mg; L-Val 30 mg.

[2] = for amount necessary to cause precipitation of 1 ml 8% PVA: 1.8 mmol of available OH groups
Description: Succinic acid, ethylene diamine, and glycine were each dissolved in water at a typical ratio of 100 mg in 1 ml water.
Aliquots of 100 microliter of each solution were added to PVA to reach final concentrations of either ˜0.5 mmol (low concentration) or ˜1 mmol (high concentration) per 1 ml 8% PVA solution (1.8 mmol of available OH groups in PVA).

Row | SMILES | Gel formation, D [1] | Gel formation, L [1] | further results
1 | C[C@@H](N)C(=O)O [D-Ala] | − |  | 
2 | Cl.NC(N)=NCCC[C@@H](N)C(=O)O [D-Arg] | −* |  | 
3 | NC(=O)C[C@@H](N)C(=O)O [D-Asn] | − |  | 
4 | N[C@H](CC(=O)O)C(=O)O [D-Asp] | − |  | 
5 | NC(=O)CC[C@@H](N)C(=O)O [D-Gln] | − |  | 
6 | N[C@H](CCC(=O)O)C(=O)O [D-Glu] | − |  | 
7 | N[C@H](Cc1c[nH]cn1)C(=O)O [D-His] | − |  | 
8 | CC[C@@H](C)[C@@H](N)C(=O)O [D-Ile] | + |  | 
9 | CC(C)C[C@@H](N)C(=O)O [D-Leu] | + |  | 
10 | NCCCC[C@@H](N)C(=O)O [D-Lys] | {square root} |  | 
11 | CSCC[C@@H](N)C(=O)O [D-Met] | + |  | 
12 | CCCC[C@@H](N)C(=O)O [D-Nle] | + |  | 
13 | N[C@H](Cc1ccccc1)C(=O)O [D-Phe] | + |  | 
14 | O=C(O)[C@H]1CCCN1 [D-Pro] | {square root} |  | 
15 | N[C@H](CO)C(=O)O [D-Ser] | {square root} |  | 
16 | C[C@H](O)[C@@H](N)C(=O)O [D-Thr] | + |  | 
17 | N[C@H](Cc1c[nH]c2ccccc12)C(=O)O [D-Trp] | + |  | 
18 | N[C@H](Cc1ccc(O)cc1)C(=O)O [D-Tyr] | + |  | 
19 | CC(C)[C@@H](N)C(=O)O [D-Val] | + |  | 
20 | NCCN [Ethylene Diamine, ethylene diamine] |  |  | Gel formation ([2]; pH 4): −; gelling over time ([2]; pH 4.4): no gelling over time; initial gelling ([2]; pH 4.4): no immediate gelling; Gel formation ([2]; pH 7): −; gelling over time ([2]; pH 7.2): no additional gelling; initial gelling ([2]; pH 7.2): little immediate gelling; Gel formation ([2]; pH 10): ++; initial gelling ([2]; pH 10.0): immediate gelling; gelling over time ([2]; pH 10.0, first 24 hours): additional gelling; initial gelling ([2]; pH 12.7): immediate gelling; gelling over time ([2]; pH 12.7, first 24 hours): additional gelling; Gel formation ([2]; pH 13.1): +++
21 | NCC(=O)O [Glycine, glycine] |  | {square root} | dissolution of gel in water ([2]; gel formed at pH 7, cured for 1 hour in its solution before placing in water): did not dissolve; Gel formation ([2]; pH 4): −; initial gelling ([2]; pH 4): little gel formation; gelling over time ([2]; pH 4, within the first 24 hours): additional gel formation; Gel formation ([2]; pH 7): +++; gelling at higher concentration ([2]; pH 7): immediate gel formation; gelling over time ([2]; pH 7): More gelling; initial gelling ([2]; pH 7): substantial gelling; amount necessary to cause precipitation of 1 ml 8% PVA ([2]; pH 7): 2.6 mmol; initial gelling ([2]; pH 9.9): much gelling; gelling over time ([2]; pH 9.9, within 24 hours): Considerable additional gelling; Gel formation ([2]; pH 10): ++

Row | SMILES | Gel formation, D [1] | Gel formation, L [1] | further results
22 | C[C@H](N)C(=O)O [L-Ala] |  | + | 
23 | N=C(N)NCCC[C@H](N)C(=O)O [L-Arg] |  | {square root} | 
24 | NC(=O)C[C@H](N)C(=O)O [L-Asn] |  | + | 
25 | N[C@@H](CC(=O)O)C(=O)O [L-Asp] |  | − | 
26 | N[C@@H](CS)C(=O)O [L-Cys] |  | + | 
27 | NC(=O)CC[C@H](N)C(=O)O [L-Gln] |  | + | 
28 | N[C@@H](CCC(=O)O)C(=O)O [L-Glu] |  | − | 
29 | N[C@@H](Cc1c[nH]cn1)C(=O)O [L-His] |  | {square root} | 
30 | O=C(O)[C@@H]1C[C@@H](O)CN1 [L-Hyp] |  | − | 
31 | CC[C@H](C)[C@H](N)C(=O)O [L-Ile] |  | − | 
32 | CC(C)C[C@H](N)C(=O)O [L-Leu] |  | − | 
33 | NCCCC[C@H](N)C(=O)O [L-Lys] |  | {square root} | 
34 | CSCC[C@H](N)C(=O)O [L-Met] |  | − | 
35 | N[C@@H](Cc1ccccc1)C(=O)O [L-Phe] |  | + | 
36 | O=C(O)[C@@H]1CCCN1 [L-Pro] |  | {square root} | 
37 | N[C@@H](CO)C(=O)O [L-Ser] |  | + | 
38 | C[C@@H](O)[C@H](N)C(=O)O [L-Thr] |  | + | 
39 | N[C@@H](Cc1c[nH]c2ccccc12)C(=O)O [L-Trp] |  | {square root} | 
40 | N[C@@H](Cc1ccc(O)cc1)C(=O)O [L-Tyr] |  | + | 
41 | CC(C)[C@H](N)C(=O)O [L-Val] |  | + | 
42 | O=C(O)CCC(=O)O [Succinic Acid, succinic acid] |  |  | dissolution of gel in water or in 1M HCl ([2]; gel formed at pH 7.0, higher concentration): did not dissolve; dissolution of gel in water or in 1M HCl ([2]; gel formed at pH 9.7, higher concentration): did not dissolve; Gel formation ([2]; pH 2.1): −; gelling over time ([2]; pH 2.1): No additional gelling; initial gelling ([2]; pH 2.1): very slight gelling; Gel formation ([2]; pH 4): −; Gel formation ([2]; pH 7): +++; gelling at higher concentration ([2]; pH 7.0): PVA precipitates out immediately; gelling over time ([2]; pH 7.0): A little more gelling; initial gelling ([2]; pH 7.0, small amounts added): some initial gelling; amount necessary to cause precipitation of 1 ml 8% PVA ([2]; pH 7): 0.85 mmol; gelling at higher concentration ([2]; pH 9.7): PVA precipitates out immediately; gelling over time ([2]; pH 9.7): Additional gelling; initial gelling ([2]; pH 9.7, small amounts added): some initial gelling; Gel formation ([2]; pH 10): +++; amount necessary to cause precipitation of 1 ml 8% PVA ([2]; pH 10): 0.73 mmol
